One assay concerns the target T1, human GCGR (Homo sapiens, UniProt P47871).
T1 construct: expressed in transfected cells; kept under Blasticidin and Hygromycin selection
The assay is described as follows: cAMP activity assay, cells expressing human GCGR. The class given is cell-based. The following applies: for EC50: cAMP production, cells expressing human GCGR, assay buffer with or without 20% human serum (not stated which), read-out: GCGR EC50 human; for hGCGR/hGLP1R (hTone): ratio of human GCGR EC50 to human GLP1R EC50. In outline: (§1)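 Peptides as 10-point titrations from DMSO tested on cells expressing human GLP1R or GCGR. cAMP measured by luminescent kit after overnight room-temperature incubation in the dark. EC50 from four-parameter logistic fit; native GLP-1 and glucagon as controls.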
On the technique in general: cAMP levels reflect the balance of adenylyl cyclase and phosphodiesterase activity.

For a further assay, the target named is T2, human GLP1R (Homo sapiens, UniProt P43220).
T2 construct: expressed in transfected cells; kept under Blasticidin and Hygromycin selection
The assay is described as follows: cAMP activity assay, cells expressing human GLP1R. It counts as cell-based. The following applies: cAMP production, assay buffer with or without 20% human serum (not stated which). In outline:
as §1

SMILES strings stand for the structures. Starred links: 1 amine or outer side, 2 acyl side, 3 side chain; linkers in the order of their positions; H or OH if unused. Non-standard residues stand in square brackets, D forms with d. Residues, ends and D or L forms follow the SMILES beside them. Groups on a side chain read outwards from the residue. *: point of attachment. C20 diacid = O=C(O)CCCCCCCCCCCCCCCCCCC(=O)*; Phe(4-CH2NH2) = NCc1ccc(C[C@H](N)C(=O)O)cc1; C18 diacid = O=C(O)CCCCCCCCCCCCCCCCC(=O)*; C17 diacid = O=C(O)CCCCCCCCCCCCCCCC(=O)*; C16 diacid = O=C(O)CCCCCCCCCCCCCCC(=O)*; γGlu = O=C(O)[C@H](CCC(=O)[*:2])N[*:1]; X1 = O=C([C@H]1CCC[C@@H]1N[*:1])[*:2]; Met(O2) = CS(=O)(=O)CC[C@H](N)C(=O)O; αMeL = CC(C)C[C@](C)(N)C(=O)O; AEEA = NCCOCCOCC(=O)O; Aib = CC(C)(N)C(=O)O

T2 sequence (P43220 24-463): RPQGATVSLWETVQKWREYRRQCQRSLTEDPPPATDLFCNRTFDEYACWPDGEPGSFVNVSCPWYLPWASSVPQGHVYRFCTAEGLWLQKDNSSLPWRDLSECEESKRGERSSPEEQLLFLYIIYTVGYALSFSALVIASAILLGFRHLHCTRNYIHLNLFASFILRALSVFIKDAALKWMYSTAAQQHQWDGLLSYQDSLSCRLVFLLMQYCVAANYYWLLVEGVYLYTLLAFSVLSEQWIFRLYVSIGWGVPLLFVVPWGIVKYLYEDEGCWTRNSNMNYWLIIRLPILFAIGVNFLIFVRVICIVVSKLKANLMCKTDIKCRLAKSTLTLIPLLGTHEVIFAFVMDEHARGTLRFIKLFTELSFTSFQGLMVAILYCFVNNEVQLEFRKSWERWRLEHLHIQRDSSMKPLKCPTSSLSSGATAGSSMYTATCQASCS
T1 sequence (P47871 26-477): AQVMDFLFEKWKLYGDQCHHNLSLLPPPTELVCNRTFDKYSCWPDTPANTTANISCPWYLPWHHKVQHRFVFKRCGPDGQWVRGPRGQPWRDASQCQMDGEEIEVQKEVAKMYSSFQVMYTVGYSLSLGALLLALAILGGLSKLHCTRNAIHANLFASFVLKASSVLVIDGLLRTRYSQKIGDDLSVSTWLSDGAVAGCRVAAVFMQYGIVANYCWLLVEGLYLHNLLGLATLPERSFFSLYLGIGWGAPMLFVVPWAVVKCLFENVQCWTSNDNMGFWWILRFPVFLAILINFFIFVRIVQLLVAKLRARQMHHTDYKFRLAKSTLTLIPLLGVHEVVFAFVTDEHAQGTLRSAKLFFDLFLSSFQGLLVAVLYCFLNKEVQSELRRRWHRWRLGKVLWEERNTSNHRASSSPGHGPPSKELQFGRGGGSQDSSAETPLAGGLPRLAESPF

With `CC(C)C[C@H](NC(=O)[C@H](Cc1ccc(O)cc1)NC(=O)[C@H](CCCCN)NC(=O)[C@H](CO)NC(=O)[C@H](Cc1ccc(O)cc1)NC(=O)[C@H](CC(=O)O)NC(=O)[C@H](CO)NC(=O)[C@@H](NC(=O)[C@H](Cc1ccccc1)NC(=O)[C@@H](NC(=O)CNC(=O)[C@H](CCC(N)=O)NC(=O)C(C)(C)NC(=O)[C@@H](N)Cc1c[nH]cn1)[C@@H](C)O)[C@@H](C)O)C(=O)N[C@@H](CC(=O)O)C(=O)N[C@@H](C)C(=O)N[C@@H](CCCNC(=N)N)C(=O)N[C@@H](C)C(=O)N[C@@H](C)C(=O)N[C@@H](CCCCNC(=O)COCCOCCNC(=O)COCCOCCNC(=O)CC[C@H](NC(=O)CCCCCCCCCCCCCCC(=O)O)C(=O)O)C(=O)N[C@@H](CC(=O)O)C(=O)N[C@@H](Cc1ccccc1)C(=O)N[C@H](C(=O)N[C@@H](CCC(N)=O)C(=O)N[C@@H](Cc1c[nH]c2ccccc12)C(=O)N[C@@](C)(CC(C)C)C(=O)N[C@@H](CCS(C)(=O)=O)C(=O)N[C@@H](CC(=O)O)C(=O)N[C@H](C(N)=O)[C@@H](C)O)C(C)C` [compound 40] (H-H[Aib]QGTFTSDYSKYLDARAAK([AEEA-AEEA-γGlu-C16 diacid])DFVQW[αMeL][Met(O2)]DT-NH2), at human GCGR, the EC50 turned out to be 0.65 nM and the “hGCGR/hGLP1R (hTone)” value turned out to be 10.39. At human GLP1R, this compound had an EC50 of 0.06 nM.

As for `CC(C)C[C@H](NC(=O)[C@H](Cc1c[nH]c2ccccc12)NC(=O)[C@H](CCCCNC(=O)COCCOCCNC(=O)COCCOCCNC(=O)CC[C@H](NC(=O)CCCCCCCCCCCCCCCCC(=O)O)C(=O)O)NC(=O)[C@@H](NC(=O)[C@H](Cc1ccccc1)NC(=O)[C@H](CC(=O)O)NC(=O)[C@H](CCC(N)=O)NC(=O)[C@H](C)NC(=O)[C@H](C)NC(=O)[C@H](CCCNC(=N)N)NC(=O)C(C)(C)NC(=O)[C@H](CC(=O)O)NC(=O)[C@H](CC(C)C)NC(=O)[C@H](Cc1ccc(O)cc1)NC(=O)[C@H](CCCCN)NC(=O)[C@H](CO)NC(=O)[C@H](Cc1ccc(O)cc1)NC(=O)[C@H](CC(=O)O)NC(=O)[C@H](CO)NC(=O)[C@@H](NC(=O)[C@H](Cc1ccccc1)NC(=O)[C@@H](NC(=O)CNC(=O)[C@H](CCC(N)=O)NC(=O)C(C)(C)NC(=O)[C@@H](N)Cc1c[nH]cn1)[C@@H](C)O)[C@@H](C)O)C(C)C)C(=O)N[C@@H](CCS(C)(=O)=O)C(=O)N[C@@H](CC(=O)O)C(=O)N[C@H](C(N)=O)[C@@H](C)O` [compound 68] (H-H[Aib]QGTFTSDYSKYLD[Aib]RAAQDFVK([AEEA-AEEA-γGlu-C18 diacid])WL[Met(O2)]DT-NH2), the EC50 came to 0.595 nM at human GCGR and 0.866 nM at human GLP1R. In addition, the “hGCGR/hGLP1R (hTone)” value on human GCGR worked out at 0.7.

In the case of `CC(C)C[C@H](NC(=O)[C@H](Cc1ccc(O)cc1)NC(=O)[C@H]1CCC[C@@H]1NC(=O)[C@H](CO)NC(=O)[C@H](Cc1ccc(O)cc1)NC(=O)[C@H](CC(=O)O)NC(=O)[C@H](CO)NC(=O)[C@@H](NC(=O)[C@H](Cc1ccccc1)NC(=O)[C@@H](NC(=O)CNC(=O)[C@H](CCC(N)=O)NC(=O)C(C)(C)NC(=O)[C@@H](N)Cc1c[nH]cn1)[C@@H](C)O)[C@@H](C)O)C(=O)N[C@@H](CC(=O)O)C(=O)NC(C)(C)C(=O)N[C@@H](CCCNC(=N)N)C(=O)N[C@@H](C)C(=O)N[C@@H](C)C(=O)N[C@@H](CCCCNC(=O)COCCOCCNC(=O)COCCOCCNC(=O)CC[C@H](NC(=O)CCCCCCCCCCCCCCC(=O)O)C(=O)O)C(=O)N[C@@H](CC(=O)O)C(=O)N[C@@H](Cc1ccccc1)C(=O)N[C@H](C(=O)N[C@H]1CCC[C@@H]1C(=O)N[C@@H](Cc1c[nH]c2ccccc12)C(=O)N[C@@H](CC(C)C)C(=O)N[C@@H](CCS(C)(=O)=O)C(=O)N[C@@H](CC(=O)O)C(=O)N[C@H](C(N)=O)[C@@H](C)O)C(C)C` [compound 36] (H-H[Aib]QGTFTSDYS[X1]YLD[Aib]RAAK([AEEA-AEEA-γGlu-C16 diacid])DFV[X1]WL[Met(O2)]DT-NH2; N-terminus assumed), at human GCGR, the EC50 was 0.23 nM and the “hGCGR/hGLP1R (hTone)” value is listed as 0.65. In addition, at human GLP1R, the EC50 came to 0.36 nM.

As to `CC(C)C[C@H](NC(=O)[C@H](Cc1ccc(O)cc1)NC(=O)[C@H](CCCCN)NC(=O)[C@H](CO)NC(=O)[C@H](Cc1ccc(O)cc1)NC(=O)[C@H](CC(=O)O)NC(=O)[C@H](CO)NC(=O)[C@@H](NC(=O)[C@H](Cc1ccccc1)NC(=O)[C@@H](NC(=O)CNC(=O)[C@H](CCC(N)=O)NC(=O)C(C)(C)NC(=O)[C@@H](N)Cc1c[nH]cn1)[C@@H](C)O)[C@@H](C)O)C(=O)N[C@@H](CC(=O)O)C(=O)N[C@@H](C)C(=O)N[C@@H](CCCNC(=N)N)C(=O)N[C@@H](C)C(=O)N[C@@H](C)C(=O)N[C@@H](CCC(N)=O)C(=O)N[C@@H](CCCCNC(=O)COCCOCCNC(=O)COCCOCCNC(=O)CC[C@H](NC(=O)CCCCCCCCCCCCCCCC(=O)O)C(=O)O)C(=O)N[C@@H](Cc1ccccc1)C(=O)N[C@H](C(=O)N[C@@H](CCC(N)=O)C(=O)N[C@@H](Cc1c[nH]c2ccccc12)C(=O)N[C@@H](CC(C)C)C(=O)N[C@@H](CCS(C)(=O)=O)C(=O)N[C@@H](CC(=O)O)C(=O)N[C@H](C(N)=O)[C@@H](C)O)C(C)C` [compound 48] (H-H[Aib]QGTFTSDYSKYLDARAAQK([AEEA-AEEA-γGlu-C17 diacid])FVQWL[Met(O2)]DT-NH2), on human GCGR, the EC50 is 0.05 nM and the “hGCGR/hGLP1R (hTone)” value came to 1.10. Also, on human GLP1R, the EC50 came out at 0.05 nM.

In the case of `CC(C)C[C@H](NC(=O)[C@H](Cc1ccc(O)cc1)NC(=O)[C@H](CCCCN)NC(=O)[C@H](CO)NC(=O)[C@H](Cc1ccc(O)cc1)NC(=O)[C@H](CC(=O)O)NC(=O)[C@H](CO)NC(=O)[C@@H](NC(=O)[C@H](Cc1ccccc1)NC(=O)[C@@H](NC(=O)CNC(=O)[C@H](CCC(N)=O)NC(=O)C(C)(C)NC(=O)[C@@H](N)Cc1c[nH]cn1)[C@@H](C)O)[C@@H](C)O)C(=O)N[C@@H](CC(=O)O)C(=O)N[C@@H](C)C(=O)N[C@@H](CCCNC(=N)N)C(=O)N[C@@H](C)C(=O)N[C@@H](C)C(=O)N[C@@H](CCC(N)=O)C(=O)N[C@@H](CC(=O)O)C(=O)N[C@@H](Cc1ccccc1)C(=O)N[C@H](C(=O)N[C@@H](CCC(N)=O)C(=O)N[C@@H](Cc1c[nH]c2ccccc12)C(=O)N[C@@H](CC(C)C)C(=O)N[C@@H](CCS(C)(=O)=O)C(=O)N[C@@H](Cc1ccc(CNC(=O)COCCOCCNC(=O)COCCOCCNC(=O)CC[C@H](NC(=O)CCCCCCCCCCCCCCCCC(=O)O)C(=O)O)cc1)C(=O)N[C@H](C(N)=O)[C@@H](C)O)C(C)C` [compound 77] (H-H[Aib]QGTFTSDYSKYLDARAAQDFVQWL[Met(O2)][Phe(4-CH2NH2)]([AEEA-AEEA-γGlu-C18 diacid])T-NH2; N-terminus assumed), at human GCGR, the EC50 was 1.09 nM and the “hGCGR/hGLP1R (hTone)” value was 2.3. The same compound showed an EC50 on human GLP1R of 0.47 nM.

For `CC(C)C[C@H](NC(=O)[C@H](Cc1ccc(O)cc1)NC(=O)[C@H](CCCCN)NC(=O)[C@H](CO)NC(=O)[C@H](Cc1ccc(O)cc1)NC(=O)[C@H](CC(=O)O)NC(=O)[C@H](CO)NC(=O)[C@@H](NC(=O)[C@H](Cc1ccccc1)NC(=O)[C@@H](NC(=O)CNC(=O)[C@H](CCC(N)=O)NC(=O)C(C)(C)NC(=O)[C@@H](N)Cc1c[nH]cn1)[C@@H](C)O)[C@@H](C)O)C(=O)N[C@@H](CC(=O)O)C(=O)N[C@@H](C)C(=O)N[C@@H](CCCNC(=N)N)C(=O)N[C@@H](C)C(=O)N[C@@H](C)C(=O)N[C@@H](CCCCNC(=O)COCCOCCNC(=O)COCCOCCNC(=O)CC[C@H](NC(=O)CCCCCCCCCCCCCCCCCCC(=O)O)C(=O)O)C(=O)N[C@@H](CC(=O)O)C(=O)N[C@@H](Cc1ccccc1)C(=O)N[C@H](C(=O)N[C@@H](CCC(N)=O)C(=O)N[C@@H](Cc1c[nH]c2ccccc12)C(=O)N[C@@H](CC(C)C)C(=O)N[C@@H](CCS(C)(=O)=O)C(=O)N[C@@H](CC(=O)O)C(=O)N[C@H](C(N)=O)[C@@H](C)O)C(C)C` [compound 43] (H-H[Aib]QGTFTSDYSKYLDARAAK([AEEA-AEEA-γGlu-C20 diacid])DFVQWL[Met(O2)]DT-NH2; N-terminus assumed), on human GCGR, the 50% effective concentration (EC50) was 0.92 nM and the “hGCGR/hGLP1R (hTone)” value worked out at 1.3. In addition, a half-maximal effect at human GLP1R (EC50) was put at 0.69 nM.

On to `CC(C)C[C@H](NC(=O)[C@H](Cc1ccc(O)cc1)NC(=O)[C@H](CCCCN)NC(=O)[C@H](CO)NC(=O)[C@H](Cc1ccc(O)cc1)NC(=O)[C@H](CC(=O)O)NC(=O)[C@H](CO)NC(=O)[C@@H](NC(=O)[C@H](Cc1ccccc1)NC(=O)[C@@H](NC(=O)CNC(=O)[C@H](CCC(N)=O)NC(=O)C(C)(C)NC(=O)[C@@H](N)Cc1c[nH]cn1)[C@@H](C)O)[C@@H](C)O)C(=O)N[C@@H](CC(=O)O)C(=O)N[C@@H](C)C(=O)N[C@@H](CCCNC(=N)N)C(=O)N[C@@H](C)C(=O)N[C@@H](C)C(=O)N[C@@H](CCC(N)=O)C(=O)N[C@@H](CCCCNC(=O)COCCOCCNC(=O)COCCOCCNC(=O)CC[C@H](NC(=O)CCCCCCCCCCCCCCCCCCC(=O)O)C(=O)O)C(=O)N[C@@H](Cc1ccccc1)C(=O)N[C@H](C(=O)N[C@@H](CCC(N)=O)C(=O)N[C@@H](Cc1c[nH]c2ccccc12)C(=O)N[C@@H](CC(C)C)C(=O)N[C@@H](CCS(C)(=O)=O)C(=O)N[C@@H](CC(=O)O)C(=O)N[C@H](C(N)=O)[C@@H](C)O)C(C)C` [compound 44] (H-H[Aib]QGTFTSDYSKYLDARAAQK([AEEA-AEEA-γGlu-C20 diacid])FVQWL[Met(O2)]DT-NH2; N-terminus assumed), for which the EC50 at human GCGR was 0.22 nM; at human GLP1R, 0.24 nM. Besides, the “hGCGR/hGLP1R (hTone)” value at human GCGR was determined as 0.92.

The EC50 is the concentration that produces a half-maximal response.
